Tests used:
[1] = test system: sorbitol content in the tissues (erythrocytes, sciatic nerve, lens); assay: Inhibitory action on sorbitol accumulation in tissues of rats with experimental diabetes; assay type: in vivo, Sprague-Dawley rats; details: relative to control group = 100%; for Sorbitol accumulation (%) nerve: sciatic nerve
Procedure: 2) Inhibitory action on sorbitol accumulation in tissues of rats with experimental diabetes
Test Compounds: Compounds of Example 23 and 29 and EPALRESTAT (described in Japanese Patent Unexamined Publication No. 40478/1982)
Sprague-Dawley rats (male, 6 weeks old, 5-6 per group) were fasted for 18 hours and injected with streptozotocin (SIGMA, 60 mg/kg) via the tail vein under ether anesthesia to prepare rats with diabetes.
The test compounds were orally administered at 4, 8 and 24 hours after the injection of streptozotocin. EPALRESTAT was administered orally in the dose of 30 mg/kg and the compounds of Examples 23 and 29 were administered orally in the dose of 10 mg/kg as a 0. 5% carboxymethylcellulose suspension, respectively. During the administrations, the rats were raised under free access to feed and water and the sorbitol content in the tissues (erythrocytes, sciatic nerve, lens) was determined 3 hours after the final administration, according to the enzyme method of H. Y. Bergmeyer et al. [Methods of Enzymatic Analysis, vol. 3, 1323-1330 (1974)] with the use of SDH (sorbitol dehydrogenase) and NAD (β-nicotinamide adenine dinucleotide). The results are expressed in percent (%) relative to the value of a control group administered with a 0.5% carboxymethylcellutose solution (solvent) instead of the compound, which was taken as 100%.

[2] = biological target: T1, aldose reductase (Sus scrofa, UniProt P80276); assay: Aldose reductase activity-inhibitory action; assay type: biochemical; details: pH 6.2, 25° C., 2 minutes, 3 mM dl-glyceraldehyde substrate, 0.1 mM NADPH, swine lens enzyme
T1 construct: swine lenses freeze-stored at -80° C. were homogenized with distilled water; from tissue; host or cells: swine lens (40% ammonium sulfate supernatant, dialyzed)
Procedure: 1) Aldose reductase activity-inhibitory action
That is, swine lenses freeze-stored at -80° C. were homogenized with distilled water and centrifuged at 10,000 G for 15 minutes. The supernatant was prepared into a 40% ammonium sulfate solution and subjected to centrifugation at 10,000 G for 10 minutes.
The activity of aldose reductase was determined by the above-mentioned method of S. Hayman et al. That is, the above-mentioned enzyme solution (25 μl) and a drug solution (25 μl) dissolved in 1% DMSO at various concentrations were added to a 40 mM phosphate buffer (200 μl, pH 6.2) containing, at final concentrations, 0.4M lithium sulfate, 0. 1 mM NADPH (reduced type nicotinamide adenine dinucleotide phosphate) and 3 mM dl-glyceraldehyde as a substrate.
The test drug number indicates the example number to be mentioned later.

[3] = test system: Normal ICR mice; details: mouse, in vivo
Procedure: The acute toxicity (safety) of the single dose of the compound of the present invention was confirmed by the following test.
Normal ICR mice (male, 7 weeks old, 5 per group) were fasted for 18 hours and the compound (300 mg/kg) of Example 29 was orally administered as a 0.5% carboxymethylcellulose suspension. To the control group, a 0.5% carboxymethylcellulose solution alone was orally administered and observation was continued for 14 days thereafter, during which period the mice were allowed to take feed and water freely.

[4] = 30 mg/kg orally at 4, 8 and 24 hours after streptozotocin
[5] = 10 mg/kg orally at 4, 8 and 24 hours after streptozotocin, * p < 0.01 Tukey

CC(/C=C1\SC(=S)N(CC(=O)O)C1=O)=C\c1ccccc1 [EPALRESTAT, reference compound]
Sorbitol accumulation (%) erythrocytes [1, 4]: 66.5% | Sorbitol accumulation (%) lens [1, 4]: 89.1% | Sorbitol accumulation (%) nerve [1, 4]: 99.9% | IC50 [2]: 0.021 µM

CN(Cc1nc2c(F)c(F)cc(F)c2s1)C(=O)CCC(=O)O [Example 23, N-(4,5,7-Trifluorobenzothiazol-2-yl)methyl-N-methylsuccinamic acid]
Sorbitol accumulation (%) erythrocytes [1, 5]: 6.3% | Sorbitol accumulation (%) lens [1, 5]: 69.5% | Sorbitol accumulation (%) nerve [1, 5]: 4.2% | IC50 [2]: 0.013 µM

CCCCN(Cc1nc2c(F)c(F)cc(F)c2s1)C(=O)CCC(=O)O [Example 26, N-(4,5,7-Trifluorobenzothiazol-2-yl)methyl-N-butylsuccinamic acid]
IC50 [2]: 0.018 µM

O=C(O)CCC(=O)N(Cc1nc2c(F)c(F)cc(F)c2s1)C1CC1 [Example 29]
death case among the mice [3]: no death case | Sorbitol accumulation (%) erythrocytes [1, 5]: 12.2% | Sorbitol accumulation (%) lens [1, 5]: 45.4% | Sorbitol accumulation (%) nerve [1, 5]: 1.0% | IC50 [2]: 0.017 µM
